Reference: the supplement of paper PMC10307832

Legend:
Assay in all cases: relative viability (nuclei count vs DMSO), 5 days (fraction); higher = more cells survive
[1] = tested on: NCI-H1975
In short: (§1)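 After 5 days of treatment, lung cancer cells in 1536-well plates were fixed and stained in a single step (final 0.05% Triton X-100, 1% formaldehyde, 1 ug/ml Hoechst) and their nuclei counted on 4× images. Treatment had been applied by pin tool the day after seeding as one drug alone or as a fixed anchor-drug dose with five library-drug doses (not always all listed) in √10 steps. Relative viability is the nuclei count of treated wells divided by that of vehicle wells, and values are medians of duplicate plates.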

[2] = tested on: NCI-H322M
In short: as §1

[3] = tested on: NCI-H1437
In short: as §1

[4] = tested on: NCI-H522
In short: as §1

[5] = tested on: LCLC-97TM1
In short: as §1

[6] = tested on: NCI-H441
In short: as §1

[7] = tested on: NCI-H647
In short: as §1

[8] = tested on: NCI-H2342
In short: as §1

[9] = tested on: NCI-H1915
In short: as §1

[10] = tested on: NCI-H358
In short: as §1

[11] = tested on: NCI-H23
In short: as §1

[12] = tested on: NCI-H838
In short: as §1

[13] = tested on: PC-3 [JPC-3]
In short: as §1

[14] = tested on: NCI-H460
In short: as §1

[15] = tested on: NCI-H1650
In short: as §1

[16] = tested on: NCI-H661
In short: as §1

[17] = tested on: NCI-H596
In short: as §1

[18] = tested on: EKVX
In short: as §1

[19] = tested on: NCI-H1666
In short: as §1

[20] = tested on: NCI-H520
In short: as §1

[21] = tested on: NCI-H727
In short: as §1

[22] = tested on: NCI-H1792
In short: as §1

[23] = tested on: SK-LU-1
In short: as §1

SMILES: CN1CCN(CCOc2cc(OC3CCOCC3)c3c(Nc4c(Cl)ccc5c4OCO5)ncnc3c2)CC1 [Saracatinib] + N=C(N)NC(=N)NCCc1ccccc1 [Phenformin] (partner 250 µM)
- relative viability ([1]; first compound 0.02 µM): 0.422
- relative viability ([1]; first compound 0.2 µM): 0.348
- relative viability ([1]; first compound 0.6325 µM): 0.387
- relative viability ([1]; first compound 2 µM): 0.32
- relative viability ([2]; first compound 0.02 µM): 0.708
- relative viability ([2]; first compound 0.2 µM): 0.694
- relative viability ([2]; first compound 0.6325 µM): 0.55
- relative viability ([2]; first compound 2 µM): 0.334
- relative viability ([3]; first compound 0.02 µM): 0.375
- relative viability ([3]; first compound 0.2 µM): 0.345
- relative viability ([3]; first compound 0.6325 µM): 0.329
- relative viability ([3]; first compound 2 µM): 0.27
- relative viability ([4]; first compound 0.02 µM): 0.553
- relative viability ([4]; first compound 0.6325 µM): 0.639
- relative viability ([4]; first compound 2 µM): 0.612
- relative viability ([5]; first compound 0.02 µM): 0.461
- relative viability ([5]; first compound 0.2 µM): 0.399
- relative viability ([5]; first compound 0.6325 µM): 0.469
- relative viability ([5]; first compound 2 µM): 0.413
- relative viability ([6]; first compound 0.02 µM): 0.768
- relative viability ([6]; first compound 0.2 µM): 0.733
- relative viability ([6]; first compound 0.6325 µM): 1.17
- relative viability ([6]; first compound 2 µM): 0.819
- relative viability ([7]; first compound 0.02 µM): 0.584
- relative viability ([7]; first compound 0.2 µM): 0.362
- relative viability ([7]; first compound 0.6325 µM): 0.5
- relative viability ([7]; first compound 2 µM): 0.308
- relative viability ([8]; first compound 0.02 µM): 0.702
- relative viability ([8]; first compound 0.2 µM): 0.529
- relative viability ([8]; first compound 0.6325 µM): 0.673
- relative viability ([8]; first compound 2 µM): 0.505
- relative viability ([9]; first compound 0.02 µM): 0.374
- relative viability ([9]; first compound 0.2 µM): 0.333
- relative viability ([9]; first compound 0.6325 µM): 0.364
- relative viability ([9]; first compound 2 µM): 0.333
- relative viability ([10]; first compound 0.02 µM): 0.37
- relative viability ([10]; first compound 0.2 µM): 0.298
- relative viability ([10]; first compound 0.6325 µM): 0.23
- relative viability ([10]; first compound 2 µM): 0.171
- relative viability ([11]; first compound 0.02 µM): 0.807
- relative viability ([11]; first compound 0.2 µM): 0.631
- relative viability ([11]; first compound 0.6325 µM): 0.917
- relative viability ([11]; first compound 2 µM): 0.739
- relative viability ([12]; first compound 0.02 µM): 0.645
- relative viability ([12]; first compound 0.2 µM): 0.486
- relative viability ([12]; first compound 0.6325 µM): 0.49
- relative viability ([12]; first compound 2 µM): 0.379
- relative viability ([13]; first compound 0.02 µM): 0.49
- relative viability ([13]; first compound 0.2 µM): 0.421
- relative viability ([13]; first compound 0.6325 µM): 0.421
- relative viability ([13]; first compound 2 µM): 0.339
- relative viability ([14]; first compound 0.02 µM): 0.534
- relative viability ([14]; first compound 0.2 µM): 0.382
- relative viability ([14]; first compound 0.6325 µM): 0.491
- relative viability ([14]; first compound 2 µM): 0.435
- relative viability ([15]; first compound 0.02 µM): 0.412
- relative viability ([15]; first compound 0.2 µM): 0.253
- relative viability ([15]; first compound 0.6325 µM): 0.317
- relative viability ([15]; first compound 2 µM): 0.295
- relative viability ([16]; first compound 0.02 µM): 0.282
- relative viability ([16]; first compound 0.2 µM): 0.271
- relative viability ([16]; first compound 0.6325 µM): 0.233
- relative viability ([16]; first compound 2 µM): 0.236
- relative viability ([17]; first compound 0.02 µM): 0.845
- relative viability ([17]; first compound 0.2 µM): 0.625
- relative viability ([17]; first compound 0.6325 µM): 0.689
- relative viability ([17]; first compound 2 µM): 0.67
- relative viability ([18]; first compound 0.02 µM): 0.26
- relative viability ([18]; first compound 0.6325 µM): 0.211
- relative viability ([18]; first compound 2 µM): 0.189
- relative viability ([19]; first compound 0.02 µM): 0.562
- relative viability ([19]; first compound 0.2 µM): 0.566
- relative viability ([19]; first compound 0.6325 µM): 0.642
- relative viability ([19]; first compound 2 µM): 0.588
- relative viability ([20]; first compound 0.02 µM): 0.687
- relative viability ([20]; first compound 0.6325 µM): 0.441
- relative viability ([20]; first compound 2 µM): 0.291
- relative viability ([21]; first compound 0.02 µM): 0.535
- relative viability ([21]; first compound 0.2 µM): 0.238
- relative viability ([21]; first compound 0.6325 µM): 0.465
- relative viability ([21]; first compound 2 µM): 0.316
- relative viability ([22]; first compound 0.02 µM): 0.258
- relative viability ([22]; first compound 0.2 µM): 0.167
- relative viability ([22]; first compound 0.6325 µM): 0.241
- relative viability ([22]; first compound 2 µM): 0.405
- relative viability ([23]; first compound 0.02 µM): 0.474
- relative viability ([23]; first compound 0.2 µM): 0.351
- relative viability ([23]; first compound 0.6325 µM): 0.25
- relative viability ([23]; first compound 2 µM): 0.209

SMILES: CN1CCN(CCOc2cc(OC3CCOCC3)c3c(Nc4c(Cl)ccc5c4OCO5)ncnc3c2)CC1 [Saracatinib] + Cc1nc(Nc2ncc(C(=O)Nc3c(C)cccc3Cl)s2)cc(N2CCN(CCO)CC2)n1 [Dasatinib] (partner 0.075 µM)
- relative viability ([1]; first compound 0.02 µM): 0.487
- relative viability ([1]; first compound 0.2 µM): 0.343
- relative viability ([1]; first compound 0.6325 µM): 0.372
- relative viability ([1]; first compound 2 µM): 0.253
- relative viability ([2]; first compound 0.02 µM): 0.245
- relative viability ([2]; first compound 0.2 µM): 0.196
- relative viability ([2]; first compound 0.6325 µM): 0.211
- relative viability ([2]; first compound 2 µM): 0.215
- relative viability ([3]; first compound 0.02 µM): 0.494
- relative viability ([3]; first compound 0.2 µM): 0.283
- relative viability ([3]; first compound 0.6325 µM): 0.389
- relative viability ([3]; first compound 2 µM): 0.289
- relative viability ([4]; first compound 0.02 µM): 0.88
- relative viability ([4]; first compound 0.6325 µM): 0.864
- relative viability ([4]; first compound 2 µM): 0.8
- relative viability ([5]; first compound 0.02 µM): 0.636
- relative viability ([5]; first compound 0.2 µM): 0.519
- relative viability ([5]; first compound 0.6325 µM): 0.723
- relative viability ([5]; first compound 2 µM): 0.33
- relative viability ([6]; first compound 0.02 µM): 0.615
- relative viability ([6]; first compound 0.2 µM): 0.442
- relative viability ([6]; first compound 0.6325 µM): 0.715
- relative viability ([6]; first compound 2 µM): 0.549
- relative viability ([7]; first compound 0.02 µM): 0.246
- relative viability ([7]; first compound 0.2 µM): 0.242
- relative viability ([7]; first compound 0.6325 µM): 0.214
- relative viability ([7]; first compound 2 µM): 0.246
- relative viability ([8]; first compound 0.02 µM): 0.398
- relative viability ([8]; first compound 0.2 µM): 0.327
- relative viability ([8]; first compound 0.6325 µM): 0.305
- relative viability ([8]; first compound 2 µM): 0.295
- relative viability ([9]; first compound 0.02 µM): 0.308
- relative viability ([9]; first compound 0.2 µM): 0.292
- relative viability ([9]; first compound 0.6325 µM): 0.282
- relative viability ([9]; first compound 2 µM): 0.322
- relative viability ([10]; first compound 0.02 µM): 0.168
- relative viability ([10]; first compound 0.2 µM): 0.16
- relative viability ([10]; first compound 0.6325 µM): 0.18
- relative viability ([10]; first compound 2 µM): 0.103
- relative viability ([11]; first compound 0.02 µM): 0.805
- relative viability ([11]; first compound 0.2 µM): 0.613
- relative viability ([11]; first compound 0.6325 µM): 0.837
- relative viability ([11]; first compound 2 µM): 0.789
- relative viability ([12]; first compound 0.02 µM): 0.274
- relative viability ([12]; first compound 0.2 µM): 0.277
- relative viability ([12]; first compound 0.6325 µM): 0.277
- relative viability ([12]; first compound 2 µM): 0.281
- relative viability ([13]; first compound 0.02 µM): 0.941
- relative viability ([13]; first compound 0.2 µM): 0.952
- relative viability ([13]; first compound 0.6325 µM): 0.682
- relative viability ([13]; first compound 2 µM): 0.595
- relative viability ([14]; first compound 0.02 µM): 0.587
- relative viability ([14]; first compound 0.2 µM): 0.418
- relative viability ([14]; first compound 0.6325 µM): 0.603
- relative viability ([14]; first compound 2 µM): 0.46
- relative viability ([15]; first compound 0.02 µM): 0.378
- relative viability ([15]; first compound 0.2 µM): 0.299
- relative viability ([15]; first compound 0.6325 µM): 0.359
- relative viability ([15]; first compound 2 µM): 0.371
- relative viability ([16]; first compound 0.02 µM): 0.891
- relative viability ([16]; first compound 0.2 µM): 0.797
- relative viability ([16]; first compound 0.6325 µM): 0.817
- relative viability ([16]; first compound 2 µM): 0.528
- relative viability ([17]; first compound 0.02 µM): 0.558
- relative viability ([17]; first compound 0.2 µM): 0.659
- relative viability ([17]; first compound 0.6325 µM): 0.607
- relative viability ([17]; first compound 2 µM): 0.57
- relative viability ([18]; first compound 0.02 µM): 0.5
- relative viability ([18]; first compound 0.2 µM): 0.363
- relative viability ([18]; first compound 0.6325 µM): 0.622
- relative viability ([18]; first compound 2 µM): 0.364
- relative viability ([19]; first compound 0.02 µM): 0.772
- relative viability ([19]; first compound 0.2 µM): 0.87
- relative viability ([19]; first compound 0.6325 µM): 0.967
- relative viability ([19]; first compound 2 µM): 0.875
- relative viability ([20]; first compound 0.02 µM): 0.21
- relative viability ([20]; first compound 0.6325 µM): 0.194
- relative viability ([20]; first compound 2 µM): 0.244
- relative viability ([21]; first compound 0.02 µM): 0.396
- relative viability ([21]; first compound 0.2 µM): 0.377
- relative viability ([21]; first compound 0.6325 µM): 0.564
- relative viability ([21]; first compound 2 µM): 0.356
- relative viability ([22]; first compound 0.02 µM): 0.824
- relative viability ([22]; first compound 0.2 µM): 0.566
- relative viability ([22]; first compound 0.6325 µM): 0.894
- relative viability ([22]; first compound 2 µM): 0.711
- relative viability ([23]; first compound 0.02 µM): 0.148
- relative viability ([23]; first compound 0.2 µM): 0.14
- relative viability ([23]; first compound 0.6325 µM): 0.138
- relative viability ([23]; first compound 2 µM): 0.146
